Reference: patent US12285408B2, “Methods and compositions for the treatment of snake bite” (priority 2021, dated 2025)

Key:
[1] = tested on: procoagulant activities of viper venoms (E. ocellatus, E. carinatus, B. asper, D. russelii); experiment: Plasma clotting assay, neutralization of procoagulant venom activity; type: biochemical; settings: range across all venoms, 100 ng venom, bovine plasma; read-out: IC50, inhibition of procoagulant activity
Description: FIG. 11. SVMP-inhibitors neutralize the in vitro procoagulant activities of several geographically distinct viper venoms. […] The data presented represents the maximum clotting velocity, calculated as the maximum of the first derivative of each clotting curve, from triplicate independent repeat experiments with SEMs, where each technical repeat represents the mean of n≥2 technical replicates. EOC, E. ocellatus; ECAR, E. carinatus; BAS, Bothrops asper, BAR, Bitis arietans; DRUS, Daboia russelii. (B) Neutralization of procoagulant venom activity by four SVMP-inhibitors across four drug concentrations (150 μM to 150 nM). The data is expressed as the maximum clotting velocity at each dose. The negative (PBS) and positive (venom-only) controls are presented as intervals (bottom dashed and top dashed lines, respectively), with the latter representing the mean maximum clotting velocity in these samples±SEM. The data represent triplicate independent repeats with SEMs, where each technical repeat represents the mean of n≥2 technical replicates. Note the different y-axis scales.
Since SVMPs are key toxins associated with causing coagulopathy, we next investigated whether the same peptidomimetic and metal chelating inhibitors could also neutralize the procoagulant bioactivities of viper venoms. To do so, we used a validated kinetic absorbance-based assay monitoring plasma clotting^35 in the presence or absence of venoms and inhibitors (FIG. 11).
(§1) We used a previously developed plasma clotting assay^35 to measure venom-induced coagulation. Briefly, 100 ng of each venom was incubated at 37° C. for 30 min in the presence or absence of inhibitors (150 μM to 150 nM final concentrations). The final reaction consisted of 10 μl venom±inhibitors in PBS, 20 μl 20 mM CaCl2), and 20 μl citrated bovine plasma (VWR). The samples were pipetted in triplicate into 384-well plates, and absorbance monitored at 595 nm for 2 h at 25° C. on an Omega FLUOstar instrument. We calculated the maximum clotting velocity of each of the curves as per clot waveform analysis^67, by calculating the maximum of the first derivative. The means of at least three independent experimental runs for each condition were plotted at each inhibitor concentration with SEMs.

[2] = tested on: SVMP activity of E. ocellatus, E. carinatus, B. asper and B. arietans venoms; experiment: In vitro kinetic fluorogenic SVMP assay (Study 2); type: biochemical
Description: FIG. 10. […] (A) SVMP activities of the five viper venoms quantified by fluorogenic assay. The data presented represent mean measurements and SEMs of area under the curves of fluorescent arbitrary units taken from three independent experimental runs. EOC, E. ocellatus; ECAR, E. carinatus; BAS, Bothrops asper, BAR, Bitis arietans; DRUS, Daboia russelii. (B) The effectiveness of metal chelators and peptidomimetic hydroxamate inhibitors at inhibiting the SVMP activity of the various viper venoms. Drug concentrations from 150 μM to 150 nM (highest to lowest dose tested) are presented. The data is expressed as percentage of the venom-only sample (100%, top dashed line). The negative control is presented as an interval (bottom dashed lines) and represents the values recorded in the PBS-only samples (expressed as percentage of venom activity), where the highest and the lowest values in each set of independent experiments are depicted. […] All data represent triplicate independent repeats with SEMs, where each technical repeat represents the mean of n≥2 technical replicates.
We used an in vitro kinetic fluorogenic assay^28 to assess the SVMP bioactivity of each venom and its inhibition by varying concentrations of the four SVMP-inhibitors.
The SVMP assay measuring metalloproteinase activity and the plasma assay measuring coagulation in the presence or absence of venoms and inhibitors were performed as previously described^28. The SVMP assay kinetically measured cleavage of a quenched fluorogenic substrate (ES010, R&D Biosystems) by venom in the presence or absence of inhibitors.
Briefly, 10 μl of the substrate (supplied as a 6.2 mM stock) was used per 5 ml reaction buffer (150 mM NaCl, 50 mM Tris-CI pH 7.5). Reactions consisted of 10 μl of venom±inhibitors in PBS and 90 μl of substrate. Venoms were used at 1 μg/reaction and final inhibitor concentrations ranged from 150 μM to 150 nM. Samples were preincubated for 30 min at 37° C. and pipetted in triplicate into 384-well plates (Greiner). Thereafter, data was collected on an Omega FLUOstar (BMG Labtech) instrument at an excitation wavelength of 320 nm and emission wavelength of 405 nm at 25° C. for 1 h. The areas under the curve (AUCs) in the 0-40 min interval were calculated for each sample using MARS data analysis software v3.31 (BMG Labtech); this time point was chosen as the time where all fluorescence curves had reached a plateau (maximum fluorescence). For comparing venom-only samples, the means of at least three independent experimental runs for each condition, expressed as AUCs (n≥3), were plotted at each inhibitor concentration with standard error of the mean (SEM). To determine inhibitor efficacy, the AUCs for each of the samples that consisted of venom+inhibitors were transformed and expressed as percentages of the venom-only sample (where the venom was 100%). The negative control (PBS only) was also expressed relative to the venom, and the variation in background was presented as an interval delineated by the lowest and highest values in the PBS-only samples across concentrations and inhibitors for a specific venom. […] However, only the latter two concentrations were sufficiently depleted of DMSO for viable use in the assay.

normal plasma clotting = experiment: Normal plasma clotting in the absence of venom; type: biochemical, bovine; settings: 150 μM, no venom
Experimental: FIG. 14. The serine protease-inhibitor nafamostat inhibits normal plasma clotting. Comparison of normal clotting (i.e. in the absence of venom and inhibitors via recalcification) and clotting in the presence of the generic serine protease-inhibitor nafamostat. […] The anticoagulant effect of this drug is expressed as a percentage of the plasma-only activity.
as §1

Echis ocellatus venom = experiment: Murine preincubation (co-incubation) model of venom lethality, intravenous, with TAT ELISA; type: in vivo, CD-1 mice; settings: 45 μg venom (2.5×LD50) preincubated 30 min at 37° C. with 60 μg of each drug, i.v., 6 h monitoring, n=5
Experimental: The intravenous median lethal dose (venom LD50) for E. ocellatus (Nigeria) of 17.85 μg per mouse was previously determined. Mice were challenged with 45 μg of E. ocellatus venom (2.5×the intravenous LD50 dose) in a refined version of the World Health Organization-recommended antivenom efficacy experiments. Groups of five male 18-22 g CD-1 mice (Charles River, UK) received experimental doses that consisted of either (a) venom only (2.5×LD50 dose), (b) venom and drug (60 μg) or (c) drug only. All experimental doses were prepared to a volume of 200 μl in PBS and incubated at 37° C. for 30 mins prior to their intravenous injection via the tail vein. Animals were monitored for 6 hours and euthanized upon observation of humane endpoints (seizure, pulmonary distress, paralysis, hemorrhage). Deaths, time of death, and survivors were recorded; where “deaths/time of death” represents the implementation of euthanasia based on the defined humane endpoints.
The same murine preincubation model was used to assess the efficacy of distinct toxin family inhibiting drugs in comparison with a drug combination. […] All experimental doses were prepared to a volume of 200 μl in PBS and incubated at 37° C. for 30 min prior to their intravenous injection via the tail vein. Animals were monitored for 6 h, and euthanized via rising concentrations of CO2 upon observation of previously defined humane end points that are predicators of lethality (e.g., seizure, pulmonary distress, paralysis, hemorrhage). Deaths, time of death, and survivors were recorded; where death/time of death represents the implementation of euthanasia based on defined humane end points.
Strong drug hits, those defined as inhibiting >80% of the venom activity in the previously described in vitro metalloproteinase assay (FIG. 1), were next progressed into murine preclinical efficacy studies, to assess their ability to prevent venom-induced lethality in vivo. We used an established in vivo model of envenoming to test the efficacy of the seven snake venom metalloproteinase toxin inhibitors identified. This model consisted of the preincubation of the test drug with venom, followed by intravenous injection of the mixture into groups of five male CD-1 mice (18-20 g) via the tail vein followed by 6 hour monitoring, and is based on principles laid out in the gold standard method of preclinical efficacy recommended by the World Health Organization.
We used an established in vivo model of envenoming^41,42 to test the efficacy of small molecule toxin inhibitors. […]

[3] = in vivo; cited from earlier work
[4] = tested on: SVSP activity of viper venoms; experiment: Chromogenic SVSP (serine protease) assay; type: biochemical
Description: FIG. 13. Nafamostat inhibits the in vitro serine protease activities of several geographically distinct viper venoms. (A) The serine protease (SVSP) activity of five viper venoms expressed as the rate (ΔAbs/time/μg venom) of substrate consumption determined by kinetic chromogenic assay. The data represents triplicate independent repeats with SEMs, where each technical repeat represents the mean of n≥2 technical replicates. EOC, E. ocellatus; ECAR, E. carinatus; BAS, Bothrops asper, BAR, Bitis arietans; DRUS, Daboia russelii. (B) Neutralization of SVSP venom activity by the serine protease-inhibitor nafamostat. The data is expressed as rates (ΔAbs/time/μg venom) and represents triplicate independent repeats with SEMs, where each technical repeat represents the mean of n≥2 technical replicates. […] Note the different y-axis scales.
SVSP activity was measured using a chromogenic substrate (S-2288, Cambridge Bioscience). […] The samples were pipetted in triplicate into 384-well plates (Greiner) and absorbance at 405 nm was monitored kinetically for ˜30 min on an Omega FLUOstar instrument (BMG Labtech). Given the linearity of the resulting slopes, negative control readings (PBS) were subtracted from each reading and the rate of substrate consumption calculated by measuring the slope between 0 and 5 mins. […]

Row | Compound | IC50 [1] | lowest concentration effective / required to fully inhibit SVMP activities ([2]; concentrations tested 150 μM to 150 nM) | IC50 ([2]; range across venoms, 1 μg venom/reaction, read-out: IC50s, inhibition of SVMP activity) | effect on normal plasma clotting (normal plasma clotting) | survival / protection against venom-induced lethality (Echis ocellatus venom) | half-life [3] | inhibition of SVSP activity ([4]; highest doses 150 and 15 μM, irrespective of venom) | IC50 ([4]; range across venoms, 1 μg venom/reaction, read-out: IC50s, inhibition of SVSP activity)
1 | OCC(S)CS (centres unmarked) [dimercaprol, 2,3-dimercapto-1-propanol] | 150 to 3700 nM | 1.5 µM | 20 to 400 nM |  |  |  |  | 
2 | N=C(N)c1ccc2cc(OC(=O)c3ccc(N=C(N)N)cc3)ccc2c1 [nafamostat] |  |  |  | dramatically inhibits plasma coagulation | no evident efficacy | ~8 min | completely inhibiting SVSP activity | 120 to 1070 nM
